According to patent US12660819B2, “Herbicidal derivatives” (SYNGENTA CROP PROTECTION AG, priority 2020, dated 2026):

Experiments:
Format in all cases: in vivo
[1] = system: Abutilon theophrasti (ABUTH); experiment: Post-emergence Test (glasshouse, percentage damage to the plant); settings: post-emergence spray, 1000 g/ha unless otherwise stated, evaluated after 13 days
Method in brief: (§1)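 Compound formulated in 50:50 acetone/water with 0.5% Tween 20 was diluted to an aqueous spray and applied at 1000 g/ha, unless otherwise stated, onto sown pots. Evaluation after 13 days gave percentage damage, banded into a 1–5 score.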

[2] = system: Amaranthus retoflexus (AMARE); experiment: as above; settings: post-emergence spray, 1000 g/ha unless otherwise stated, evaluated after 13 days
Method in brief: as §1

[3] = system: Echinochloa crus-galli (ECHCG); experiment: as above; settings: post-emergence spray, 1000 g/ha unless otherwise stated, evaluated after 13 days
Method in brief: as §1

[4] = system: Ipomoea hederacea (IPOHE); experiment: as above; settings: post-emergence spray, 1000 g/ha unless otherwise stated, evaluated after 13 days
Method in brief: (§2)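 Damage was rated 13 days after treatment and expressed on a five-point scale: 5=81-100%, 4=61-80%, 3=41-60%, 2=21-40%, 1=0-20%. Spray was applied at 1000 g/ha unless otherwise stated, from acetone/water (50:50) with 0.5% Tween 20, to sown pots.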

Setaria faberi (SETFA) [5] = experiment: as above; settings: post-emergence spray, 1000 g/ha unless otherwise stated, evaluated after 13 days
Method in brief: as §2

Zea mays (ZEAMX) [6] = experiment: as above; settings: post-emergence spray, 1000 g/ha unless otherwise stated, evaluated after 13 days
Method in brief: as §2

[7] = system: Amaranthus retoflexus (AMARE); experiment: Pre-emergence Test (glasshouse, percentage damage to the plant); settings: 1000 g/ha unless otherwise stated, five-point scale
Setaria faberi (SETFA) [8] = experiment: as above; settings: 1000 g/ha unless otherwise stated, five-point scale
[9] = system: Echinochloa crus-galli (ECHCG); experiment: as above; settings: 1000 g/ha unless otherwise stated, five-point scale
[10] = system: Ipomoea hederacea (IPOHE); experiment: as above; settings: 1000 g/ha unless otherwise stated, five-point scale
[11] = system: Abutilon theophrasti (ABUTH); experiment: as above; settings: 1000 g/ha unless otherwise stated, five-point scale
Zea mays (ZEAMX) [12] = experiment: as above; settings: 1000 g/ha unless otherwise stated, five-point scale

CCn1c(C)c(-c2cc(C)cs2)c(=O)c(C(=O)O)c1-c1ccc(Cl)c(Cl)c1 [Compound 86, 2-(3,4-dichlorophenyl)-1-ethyl-6-methyl-5-(4-methyl-2-thienyl)-4-oxo-pyridine-3-carboxylic acid]
4 (4=61-80%): Post-emergence Test ABUTH, percentage damage to the plant (five-point scale) [1] | Post-emergence Test AMARE, percentage damage to the plant (five-point scale) [2] | Post-emergence Test SETFA, percentage damage to the plant (five-point scale) (Setaria faberi (SETFA) [5]) | percentage damage to the plant, AMARE [7]
3 (3=41-60%): Post-emergence Test ECHCG, percentage damage to the plant (five-point scale) [3] | Post-emergence Test IPOHE, percentage damage to the plant (five-point scale) [4] | percentage damage to the plant, ECHCG [9]
1 (1=0-20%): Post-emergence Test ZEAMX, percentage damage to the plant (five-point scale) (Zea mays (ZEAMX) [6]) | percentage damage to the plant, IPOHE [10] | percentage damage to the plant, ZEAMX (Zea mays (ZEAMX) [12])
2 (2=21-40%): percentage damage to the plant, ABUTH [11]
5 (5=81-100%): percentage damage to the plant, SETFA (Setaria faberi (SETFA) [8])

CCn1c(C)c(-c2ccc(OC(F)(F)F)cc2)c(=O)c(C(=O)O)c1-c1ccc(F)cc1F [Compound 136, 2-(2,4-difluorophenyl)-1-ethyl-6-methyl-4-oxo-5-[4-(trifluoromethoxy)phenyl]pyridine-3-carboxylic acid]
4 (4=61-80%): Post-emergence Test SETFA, percentage damage to the plant (five-point scale) (Setaria faberi (SETFA) [5])
5 (5=81-100%): percentage damage to the plant, SETFA (Setaria faberi (SETFA) [8])
1 (1=0-20%): Post-emergence Test ZEAMX, percentage damage to the plant (five-point scale) (Zea mays (ZEAMX) [6]) | percentage damage to the plant, ZEAMX (Zea mays (ZEAMX) [12])
3 (3=41-60%): Post-emergence Test ABUTH, percentage damage to the plant (five-point scale) [1] | Post-emergence Test AMARE, percentage damage to the plant (five-point scale) [2] | Post-emergence Test ECHCG, percentage damage to the plant (five-point scale) [3] | percentage damage to the plant, ECHCG [9] | percentage damage to the plant, ABUTH [11]
2 (2=21-40%): Post-emergence Test IPOHE, percentage damage to the plant (five-point scale) [4] | percentage damage to the plant, AMARE [7] | percentage damage to the plant, IPOHE [10]

CCn1c(C)c(-c2cccc(C#N)c2)c(=O)c(C(=O)O)c1-c1ccnc(Cl)c1 [Compound 141, 2-(2-chloro-4-pyridyl)-5-(3-cyanophenyl)-1-ethyl-6-methyl-4-oxo-pyridine-3-carboxylic acid]
0: Post-emergence Test ABUTH, percentage damage to the plant (five-point scale) [1] | Post-emergence Test AMARE, percentage damage to the plant (five-point scale) [2] | Post-emergence Test ECHCG, percentage damage to the plant (five-point scale) [3] | Post-emergence Test IPOHE, percentage damage to the plant (five-point scale) [4] | Post-emergence Test SETFA, percentage damage to the plant (five-point scale) (Setaria faberi (SETFA) [5]) | Post-emergence Test ZEAMX, percentage damage to the plant (five-point scale) (Zea mays (ZEAMX) [6]) | percentage damage to the plant, AMARE [7] | percentage damage to the plant, SETFA (Setaria faberi (SETFA) [8]) | percentage damage to the plant, ECHCG [9] | percentage damage to the plant, IPOHE [10] | percentage damage to the plant, ABUTH [11] | percentage damage to the plant, ZEAMX (Zea mays (ZEAMX) [12])

CCNC(=O)c1cc(-c2c(C)n(CC)c(-c3ccc(Cl)c(Cl)c3)c(C(=O)O)c2=O)ccc1Cl [Compound 72, 5-[4-chloro-3-(ethylcarbamoyl)phenyl]-(3,4-dichlorophenyl)-1-ethyl-6-methyl-4-oxo-pyridine-3-carboxylic acid]
1 (1=0-20%): Post-emergence Test ABUTH, percentage damage to the plant (five-point scale) [1] | Post-emergence Test AMARE, percentage damage to the plant (five-point scale) [2] | Post-emergence Test ECHCG, percentage damage to the plant (five-point scale) [3] | Post-emergence Test IPOHE, percentage damage to the plant (five-point scale) [4] | Post-emergence Test SETFA, percentage damage to the plant (five-point scale) (Setaria faberi (SETFA) [5]) | Post-emergence Test ZEAMX, percentage damage to the plant (five-point scale) (Zea mays (ZEAMX) [6]) | percentage damage to the plant, AMARE [7] | percentage damage to the plant, SETFA (Setaria faberi (SETFA) [8]) | percentage damage to the plant, ECHCG [9] | percentage damage to the plant, IPOHE [10] | percentage damage to the plant, ABUTH [11] | percentage damage to the plant, ZEAMX (Zea mays (ZEAMX) [12])

CCn1c(C)c(-c2cccc(C(F)F)c2)c(=O)c(C(=O)O)c1-c1ccc(Cl)c(Cl)c1 [Compound 106, 2-(3,4-dichlorophenyl)-5-[3-(difluoromethyl)phenyl]-1-ethyl-6-methyl-4-oxo-pyridine-3-carboxylic acid]
2 (2=21-40%): Post-emergence Test IPOHE, percentage damage to the plant (five-point scale) [4] | percentage damage to the plant, ABUTH [11]
3 (3=41-60%): Post-emergence Test ABUTH, percentage damage to the plant (five-point scale) [1] | Post-emergence Test AMARE, percentage damage to the plant (five-point scale) [2]
1 (1=0-20%): Post-emergence Test ECHCG, percentage damage to the plant (five-point scale) [3] | Post-emergence Test SETFA, percentage damage to the plant (five-point scale) (Setaria faberi (SETFA) [5]) | Post-emergence Test ZEAMX, percentage damage to the plant (five-point scale) (Zea mays (ZEAMX) [6]) | percentage damage to the plant, AMARE [7] | percentage damage to the plant, SETFA (Setaria faberi (SETFA) [8]) | percentage damage to the plant, ECHCG [9] | percentage damage to the plant, IPOHE [10] | percentage damage to the plant, ZEAMX (Zea mays (ZEAMX) [12])
